# Activity calls are given as the source filed them. The rule behind the calls is not given here.
# Tested on: CCRIS mutagenicity, Ames/micronucleus/aberration tests
# Experiment: CCRIS mutagenicity studies
# Conditions: Test System: AMES SALMONELLA TYPHIMURIUM
# [1] = Strain/Indicator: TA98, Metabolic Activation: NONE, Method: STANDARD PLATE
# [2] = Strain/Indicator: TA98, Metabolic Activation: RAT, LIVER, S-9, AROCLOR 1254, Method: STANDARD PLATE
# [3] = Strain/Indicator: TA100, Metabolic Activation: NONE, Method: STANDARD PLATE
# [4] = Strain/Indicator: TA100, Metabolic Activation: RAT, LIVER, S-9, AROCLOR 1254, Method: STANDARD PLATE
smiles,measurement,setting,value
COC(C)=O,mutagenic call,"Strain/Indicator: TA97, Metabolic Activation: HAMSTER, LIVER, S-9, AROCLOR 1254 (10 OR 30%), Method: PREINCUBATION",inactive; negative
same,mutagenic call,"Strain/Indicator: TA97, Metabolic Activation: NONE, Method: PREINCUBATION",inactive; negative
same,mutagenic call,"Strain/Indicator: TA97, Metabolic Activation: RAT, LIVER, S-9, AROCLOR 1254 (10 OR 30%), Method: PREINCUBATION",inactive; negative
same,mutagenic call,"Strain/Indicator: TA98, Metabolic Activation: HAMSTER, LIVER, S-9, AROCLOR 1254 (10 OR 30%), Method: PREINCUBATION",inactive; negative
same,mutagenic call,"Strain/Indicator: TA98, Metabolic Activation: NONE, Method: PREINCUBATION",inactive; negative
same,mutagenic call,"Strain/Indicator: TA98, Metabolic Activation: RAT, LIVER, S-9, AROCLOR 1254 (10 OR 30%), Method: PREINCUBATION",inactive; negative
same,mutagenic call,"Strain/Indicator: TA100, Metabolic Activation: HAMSTER, LIVER, S-9, AROCLOR 1254 (10 OR 30%), Method: PREINCUBATION",inactive; negative
same,mutagenic call,"Strain/Indicator: TA100, Metabolic Activation: NONE, Method: PREINCUBATION",inactive; negative
same,mutagenic call,"Strain/Indicator: TA100, Metabolic Activation: RAT, LIVER, S-9, AROCLOR 1254 (10 OR 30%), Method: PREINCUBATION",inactive; negative
same,mutagenic call,"Strain/Indicator: TA1535, Metabolic Activation: HAMSTER, LIVER, S-9, AROCLOR 1254 (10 OR 30%), Method: PREINCUBATION",inactive; negative
same,mutagenic call,"Strain/Indicator: TA1535, Metabolic Activation: NONE, Method: PREINCUBATION",inactive; negative
same,mutagenic call,"Strain/Indicator: TA1535, Metabolic Activation: RAT, LIVER, S-9, AROCLOR 1254 (10 OR 30%), Method: PREINCUBATION",inactive; negative
same,mutagenic call,"Strain/Indicator: TA1537, Metabolic Activation: HAMSTER, LIVER, S-9, AROCLOR 1254 (30%), Method: PREINCUBATION",inactive; negative
same,mutagenic call,"Strain/Indicator: TA1537, Metabolic Activation: NONE, Method: PREINCUBATION",inactive; negative
same,mutagenic call,"Strain/Indicator: TA1537, Metabolic Activation: RAT, LIVER, S-9, AROCLOR 1254 (30%), Method: PREINCUBATION",inactive; negative
C=C1C(=O)[C@]23CCC4[C@](C)(CCC[C@@]4(C)C(=O)O)C2CC[C@@]1(O)C3 (stereo partly specified),mutagenic call,"Strain/Indicator: TM677, Metabolic Activation: NONE, Method: PREINCUBATION",active; positive
NC(Cc1ccccc1)C(=O)O (stereo unspecified),mutagenic call,"Strain/Indicator: TA98, Metabolic Activation: RAT LIVER S-9, CHLOROPHENE, Method: STANDARD PLATE (COMPOUND HEATED AT 250 DEGREES CELSIUS FOR 20 MIN)",inactive; negative
CN(C)c1ccc(N=Nc2cccnc2)cc1,mutagenic call,[1],inactive; negative
same,mutagenic call,[2],inactive; negative
same,mutagenic call,[3],inactive; negative
same,mutagenic call,[4],inactive; negative
same,mutagenic call,"Strain/Indicator: TA1535, Metabolic Activation: NONE, Method: STANDARD PLATE",inactive; negative
same,mutagenic call,"Strain/Indicator: TA1535, Metabolic Activation: RAT, LIVER, S-9, AROCLOR 1254, Method: STANDARD PLATE",inactive; negative
same,mutagenic call,"Strain/Indicator: TA1537, Metabolic Activation: NONE, Method: STANDARD PLATE",inactive; negative
same,mutagenic call,"Strain/Indicator: TA1537, Metabolic Activation: RAT, LIVER, S-9, AROCLOR 1254, Method: STANDARD PLATE",inactive; negative
same,mutagenic call,"Strain/Indicator: TA1538, Metabolic Activation: NONE, Method: STANDARD PLATE",inactive; negative
same,mutagenic call,"Strain/Indicator: TA1538, Metabolic Activation: RAT, LIVER, S-9, AROCLOR 1254, Method: STANDARD PLATE",inactive; negative
O=C1CCC(=O)N1c1cc(Cl)cc(Cl)c1,mutagenic call,[1],inactive; negative
same,mutagenic call,[2],inactive; negative
same,mutagenic call,[3],inactive; negative
same,mutagenic call,[4],inactive; negative

# — PubChem BioAssay AID1259407 (Chemical Carcinogenesis Research Information System (CCRIS), 2018)
